Laboratory results from patent US20230081390A1, “INHIBITORS OF RAF KINASES” (Kinnate Biopharma Inc., priority 2019, published 2023).

Target: human RAF1 (Homo sapiens, UniProt P04049)
Experiment: Protein kinase assay (33P-ATP filter binding), human RAF1, 10-dose IC50
Assay type: biochemical
Conditions: MEK1 (K97R) substrate 3 micromolar, ATP 10 micromolar, read-out: RAF-1 IC50
Description: In brief, for each reaction, kinase and substrate were mixed in a buffer containing 20 mM HEPES (pH 7.5), 10 mM MgCl2, 1 mM EGTA, 0.02% Brij35, 0.02 mg/mL BSA, 0.1 mM Na3VO4, 2 mM DTT, and […]. All compounds were solubilized in DMSO. Compounds were then added to each reaction mixture via acoustic dispense using an ECHO 550 nanoliter dispenser. For human RAF1 testing, human MEK1 (K97R) was used as a substrate at a concentration of 3 micromolar, with a final ATP concentration of 10 micromolar. […] Reactions were carried out at room temperature for 2 hr and spotted onto P81 ion exchange cellulose chromatography paper (Reaction Biology). […] The percent remaining kinase activity relative to a vehicle-containing (DMSO) kinase reaction was calculated for each kinase/inhibitor pair. IC50 values were calculated using Prism 5 (GraphPad).

Chain of human RAF1 (P04049 whole entry): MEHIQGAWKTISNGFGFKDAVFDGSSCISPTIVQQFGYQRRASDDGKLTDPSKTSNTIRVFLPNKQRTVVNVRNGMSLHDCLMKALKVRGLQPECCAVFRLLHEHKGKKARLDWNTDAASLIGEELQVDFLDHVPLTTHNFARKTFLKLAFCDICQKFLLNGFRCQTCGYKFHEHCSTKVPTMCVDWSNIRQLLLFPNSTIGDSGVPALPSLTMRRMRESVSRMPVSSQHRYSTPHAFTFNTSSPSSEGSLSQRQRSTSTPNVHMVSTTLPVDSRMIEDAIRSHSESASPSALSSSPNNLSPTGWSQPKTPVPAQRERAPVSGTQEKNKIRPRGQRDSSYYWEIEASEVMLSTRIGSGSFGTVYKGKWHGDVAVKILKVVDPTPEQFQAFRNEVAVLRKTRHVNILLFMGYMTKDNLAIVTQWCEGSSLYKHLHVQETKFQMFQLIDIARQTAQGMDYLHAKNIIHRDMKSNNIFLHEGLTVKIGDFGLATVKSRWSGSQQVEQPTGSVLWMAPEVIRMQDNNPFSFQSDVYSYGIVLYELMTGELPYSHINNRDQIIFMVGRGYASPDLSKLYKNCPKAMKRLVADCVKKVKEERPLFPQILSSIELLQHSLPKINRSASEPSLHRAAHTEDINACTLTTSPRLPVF

SMILES	IC50 [nM]
Cc1ccc(NC(=O)N(C)c2cnn(C(F)(F)F)c2)cc1-c1cc(OCCO)nc(N2CCOCC2)c1 [Example 141, 1-[3-[2-(2-hydroxyethoxy)-6-(morpholin-4-yl)pyridin-4-yl]-4-methylphenyl]-3-methyl-3-[1-(trifluoromethyl)pyrazol-4-yl]urea]	< 10
Cc1ccc(NC(=O)N2CCC3(CCC3(F)F)C2)cc1-c1cc(OCCO)nc(N2CCOCC2)c1 (single isomer, unassigned) [Example 121, 1,1-difluoro-N-[3-[2-(2-hydroxyethoxy)-6-(morpholin-4-yl)pyridin-4-yl]-4-methylphenyl]-6-azaspiro[3.4]octane-6-carboxamide]	< 10
Cc1cc(F)c(NC(=O)N2CCCC3(CCC3)C2)cc1-c1cc(OCCO)nc(N2CCOCC2)c1 [Example 38, N-[2-fluoro-5-[2-(2-hydroxyethoxy)-6-(morpholin-4-yl)pyridin-4-yl]-4-methylphenyl]-6-azaspiro[3.5]nonane-6-carboxamide]	< 10
CC(C#N)=C1CCN(C(=O)Nc2cc(-c3cc(OCCO)nc(N4CCOCC4)c3)c(C)cc2F)C1 (stereo in doubt) [Example 97, (3E)-3-(1-cyanoethylidene)-N-[2-fluoro-5-[2-(2-hydroxyethoxy)-6-(morpholin-4-yl)pyridin-4-yl]-4-methylphenyl]pyrrolidine-1-carboxamide]	< 10
Cc1ccc(NC(=O)N2CC[C@H](OC(F)(F)F)C2)cc1-c1cc(OC(C)(C)CO)nc(N2CCOCC2)c1 [Example 170, (3S)-N-(3-[2-[(1-hydroxy-2-methylpropan-2-yl)oxy]-6-(morpholin-4-yl)pyridin-4-yl]-4-methylphenyl)-3-(trifluoromethoxy)pyrrolidine-1-carboxamide]	< 10
Cc1cc(F)c(NC(=O)N2CCC3(COC3)C2)cc1-c1cc(OCCO)nc(N2CCOCC2)c1 [Example 41, N-[2-fluoro-5-[2-(2-hydroxyethoxy)-6-(morpholin-4-yl)pyridin-4-yl]-4-methylphenyl]-2-oxa-6-azaspiro[3.4]octane-6-carboxamide]	10 to 100
Cc1ccc(NC(=O)N2CC[C@H](OC(F)(F)F)C2)cc1-c1cc(OCC(C)(C)O)nc(N2CCOCC2)c1 [Example 154, (3S)-N-[3-[2-(2-hydroxy-2-methylpropoxy)-6-(morpholin-4-yl)pyridin-4-yl]-4-methylphenyl]-3-(trifluoromethoxy)pyrrolidine-1-carboxamide]	< 10
Cc1cc(F)c(NC(=O)N2CCS[C@@H](C(F)(F)F)C2)cc1-c1cc(OCCO)nc(N2CCOCC2)c1 [Example 169, (R)-N-(2-fluoro-5-(2-(2-hydroxyethoxy)-6-morpholinopyridin-4-yl)-4-methylphenyl)-2-(trifluoromethyl)thiomorpholine-4-carboxamide]	< 10
Cc1cc(F)c(NC(=O)N2CCC3(CCC3(F)F)C2)cc1-c1cc(OCCO)nc(N2CCOCC2)c1 (single isomer, unassigned) [Example 91, 1,1-difluoro-N-[2-fluoro-5-[2-(2-hydroxyethoxy)-6-(morpholin-4-yl)pyridin-4-yl]-4-methylphenyl]-6-azaspiro[3.4]octane-6-carboxamide]	< 10
Cc1cc(F)c(NC(=O)N2CC/C(=C/C(F)(F)F)C2)cc1-c1cc(OCCO)nc(N2CCOCC2)c1 [Example 92, (Z)-N-(2-fluoro-5-(2-(2-hydroxyethoxy)-6-morpholinopyridin-4-yl)-4-methylphenyl)-3-(2,2,2-trifluoroethylidene)pyrrolidine-1-carboxamide]	< 10
Cc1ccc(NC(=O)N2CC[C@@H](CC(F)(F)F)C2)cc1-c1cncc(N2CCOCC2)c1 [Example 226, (3S)-N-[4-methyl-3-[5-(morpholin-4-yl)pyridin-3-yl]phenyl]-3-(2,2,2-trifluoroethyl)pyrrolidine-1-carboxamide]	< 10
Cc1cc(F)c(NC(=O)N2CCC(C(F)(F)C(F)(F)F)C2)cc1-c1cc(OCCO)nc(N2CCOCC2)c1 (single isomer, unassigned) [Example 85]	< 10
Cc1cc(F)c(NC(=O)N2C[C@@H](O)C[C@@H](C(F)(F)F)C2)cc1-c1cc(OCCO)nc(N2CCOCC2)c1 [Example 44, (3S,5R)-N-[2-fluoro-5-[2-(2-hydroxyethoxy)-6-(morpholin-4-yl)pyridin-4-yl]-4-methylphenyl]-3-hydroxy-5-(trifluoromethyl) piperidine-1-carboxamide]	< 10
Cc1ccc(NC(=O)N2CCC(CC(F)(F)F)C2)cc1-c1cc(O[C@H]2CCNC2)nc(N2CCOCC2)c1 (stereo partly drawn) [Example 201, N-(4-methyl-3-(2-morpholino-6-((S)-pyrrolidin-3-yloxy)pyridin-4-yl)phenyl)-3-(2,2,2,- trifluoroethyl)pyrrolidine-1-carboxamide]	< 10
Cc1cc(F)c(NC(=O)N2CCC(C(C)(C)C#N)C2)cc1-c1cc(OCCO)nc(N2CCOCC2)c1 (centres unmarked) [Example 99, 3-(1-cyano-1-methylethyl)-N-[2-fluoro-5-[2-(2-hydroxyethoxy)-6-(morpholin-4-yl)pyridin-4-yl]-4-methylphenyl]pyrrolidine-1-carboxamide]	< 10
COC1(C(F)(F)F)CCCN(C(=O)Nc2cc(-c3cc(OCCO)nc(N4CCOCC4)c3)c(C)cc2F)C1 (centres unmarked) [Example 42, N-[2-fluoro-5-[2-(2-hydroxyethoxy)-6-(morpholin-4-yl)pyridin-4-yl]-4-methylphenyl]-3-methoxy-3-(trifluoromethyl)piperidine-1-carboxamide]	< 10
Cc1cc(F)c(NC(=O)N2C[C@@H](N)C[C@@H](C(F)(F)F)C2)cc1-c1cc(OCCO)nc(N2CCOCC2)c1 [Example 40, (3S,5R)-3-amino-N-[2-fluoro-5-[2-(2-hydroxyethoxy)-6-(morpholin-4-yl)pyridin-4-yl]-4-methylphenyl]-5-(trifluoromethyl)piperidine-1-carboxamide]	< 10
Cc1ccc(NC(=O)N2C[C@@H]3[C@H](C2)[C@H]3C(F)(F)F)cc1-c1cc(OCCO)nc(N2CCOCC2)c1 [Example 176, (1R,5S,6r)-N-(3-(2-(2-hydroxyethoxy)-6-morpholinopyridin-4-yl)-4-methylphenyl)-6-(trifluoromethyl)-3-azabicyclo[3.1.0]hexane-3-carboxamide]	< 10
Cc1cc(F)c(NC(=O)N2CCCC(O)(C(F)(F)F)C2)cc1-c1cc(OCCO)nc(N2CCOCC2)c1 (centres unmarked) [Example 25, N-(2-fluoro-5-(2-(2-hydroxyethoxy)-6-morpholinopyridin-4-yl)-4-methylphenyl)-3-hydroxy-3-(trifluoromethyl)piperidine-1-carboxamide]	10 to 100

Now from value to molecule:

IC50 [nM]	SMILES
< 10	Cc1cc(F)c(NC(=O)NCC(F)(F)C(F)(F)F)cc1-c1cc(OCCO)nc(N2CCOCC2)c1 [Example 35, 1-[2-fluoro-5-[2-(2-hydroxyethoxy)-6-(morpholin-4-yl)pyridin-4-yl]-4-methylphenyl]-3-(2,2,3,3,3-pentafluoropropyl)urea]
< 10	Cc1ccc(NC(=O)N2CC[C@H](OC(F)(F)F)C2)cc1-c1cc(OC[C@H](O)CO)nc(N2CCOCC2)c1 [Example 142, (3S)-N-(3-[2-[(2R)-2,3-dihydroxypropoxy]-6-(morpholin-4-yl)pyridin-4-yl]-4-methylphenyl)-3-(trifluoromethoxy)pyrrolidine-1-carboxamide]
< 10	Cc1ccc(NC(=O)N2CC[C@H](OCC(F)(F)F)C2)cc1-c1cc(OCCO)nc(N2CCOCC2)c1 [Example 137, (3S)-N-[3-[2-(2-hydroxyethoxy)-6-(morpholin-4-yl)pyridin-4-yl]-4-methylphenyl]-3-(2,2,2-trifluoroethoxy)pyrrolidine-1-carboxamide]
< 10	Cc1ccc(NC(=O)N2CCC(S(=O)(=O)C(F)(F)F)C2)cc1-c1cc(OCCO)nc(N2CCOCC2)c1 (centres unmarked) [Example 134, N-[3-[2-(2-hydroxyethoxy)-6-(morpholin-4-yl)pyridin-4-yl]-4-methylphenyl]-3-trifluoromethanesulfonylpyrrolidine-1-carboxamide]
< 10	Cc1ccc(NC(=O)N2CC[C@H](SC(F)(F)F)C2)cc1-c1cc(OCCO)nc(N2CCOCC2)c1 (single isomer, unassigned) [Example 118]
< 10	Cc1ccc(NC(=O)N2CCC(C3CC3(F)F)C2)cc1-c1cc(OCCO)nc(N2CCOCC2)c1 (centres unmarked) [Example 114, 3-(2,2-difluorocyclopropyl)-N-[3-[2-(2-hydroxyethoxy)-6-(morpholin-4-yl)pyridin-4-yl]-4-methylphenyl]pyrrolidine-1-carboxamide]
< 10	Cc1ccc(NC(=O)N2CCC(CC(F)(F)F)C2)cc1-c1cc(OC2CCN(C)CC2)nc(N2CCOCC2)c1 (centres unmarked) [Example 190, N-(4-methyl-3-(2-((1-methylpiperidin-4-yl)oxy)-6-morpholinopyridin-4-yl)phenyl)-3-(2,2,2-trifluoroethyl)pyrrolidine-1-carboxamide]
< 10	Cc1cc(F)c(NC(=O)N2CC[C@H](C(F)(F)F)C2)cc1-c1cc(OCCO)nc(N2CCOC[C@H]2C)c1 (single isomer, unassigned) [Example 30]
< 10	Cc1ccc(NC(=O)N2CC[C@@H](CC(F)(F)F)C2)cc1-c1cc(OCCS(C)(=N)=O)nc(N2CCOCC2)c1 (stereo partly drawn) [Example 221, (3S)-N-[3-(2-[2-[imino(methyl)oxo-λ^6-sulfanyl]ethoxy]-6-(morpholin-4-yl)pyridin-4-yl)-4-methylphenyl]-3-(2,2,2-trifluoroethyl)pyrrolidine-1-carboxamide]
< 10	Cc1ccc(NC(=O)N2CC[C@H](C(F)(F)F)C2)cc1-c1cnc(OCCO)c(N2CCOCC2)c1 (single isomer, unassigned) [Example 15]
